Results on four compounds are retold here after PMC9227944, “Simultaneous Spray Drying for Combination Dry Powder Inhaler Formulations” (Pharmaceutics, 2022).

Structures are written as SMILES. ≈ marks a conversion by molar mass, not a printed value. Bounds are passed on as bounds.

For data set [1] the following is noted: ligand exchange; cited from earlier work.
The target in another data set is T1, human recombinant VEGF (Homo sapiens, UniProt P15692).
T1 construct: purchased R&D Systems
T1 sequence (P15692 1-191 isoform P15692-4): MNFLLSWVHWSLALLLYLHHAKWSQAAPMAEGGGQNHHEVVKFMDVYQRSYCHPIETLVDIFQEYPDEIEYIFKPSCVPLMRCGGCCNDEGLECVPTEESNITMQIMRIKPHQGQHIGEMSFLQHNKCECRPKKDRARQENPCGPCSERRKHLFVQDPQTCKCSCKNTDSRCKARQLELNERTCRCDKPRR
The data set can be described thus: VEGF binding competitive ELISA assay. The following applies: compared with BEV stock positive control. On the procedure: Spray-dried powders or as-received API were reconstituted to a 4 mg/mL active in the buffered saline and allowed to dissolve for 60 min. […] Standards were prepared according to the kit protocol.
After incubation, 50 µL of the assay diluent was added to each of the wells of the supplied plate. A total of 200 µL each of the sample (in triplicate) and standards were added to respective wells and incubated for 2 h at ambient temperature. The plate was washed three times with 400 µL of the kit’s wash buffer, then 200 µL of the VEGF-conjugate was added. The plate was incubated for another 2 h, then washed again three times, as previously. A 1:1 mixture of the kit’s color reagent A and B were mixed, then 200 µL was added to each well. After a 30 min incubation at ambient temperature, 50 µL of stop solution was added to each well. The absorbances were read on an M5e plate reader (Molecular Devices, San Jose, CA, USA) using a 450 nm detection wavelength and 540 nm as the blank wavelength for baseline correction. The quantified concentration of unbound VEGF in pg/mL was reported. All samples were analyzed in triplicate.
Briefly, reconstituted simul-spray powders were incubated with VEGF protein in the assay buffer. Next, the quantity of unbound VEGF in the solution was quantified by a commercially available VEGF ELISA assay kit.

Data set [2] can be described thus: Chemical stability in solution. The conditions noted are these: bevacizumab and cisplatin in the same aqueous solution. The format is physicochemical.
A short description of data set [3]: Equilibrium solubility of API and excipients in spray solvents (TGA of saturated supernatant). On the procedure:
The solutions were centrifuged to remove excess solids. A total of 50 µL of the supernatant was pipetted into an aluminum pan and placed into a Thermogravimetric Analyzer (Discovery TGA, TA Instruments, New Castle, DE, USA). The sample was heated to 130 °C at a ramp rate of 50 °C/min and then held isothermal for 10 min to allow all of the solvent to evaporate. The final mass of the sample (of the known 50 µL volume) was recorded and used to determine the solubility in mg/mL. Samples were measured in triplicate.
Solubility screening was performed on the three small molecule APIs and the L-leucine excipient in water, 90/10 methanol/water and 80/20 ethanol/water by weight. These solvent ratios were chosen to maximize the solubility of L-leucine and API. Additional details on solubility and formulation selection can be found in the Supplementary Information.

Setting [4] is: water, thermodynamic from solid, Solubility, mg/mL in Water.
Setting [5] is: organic solvent or mixture, thermodynamic from solid, Solubility, mg/mL in 90/10 Methanol/Water.

Consider `N.N.[Cl][Pt][Cl]` [CP, cisplatin], for which the “Chemical stability in aqueous solution” value in data set [1] was “not chemically stable in an aqueous solution for longer than a few hours”. In addition, the “VEGF inhibition (in words)” value at human recombinant VEGF is on record as “do not inhibit VEGF measurably”. For the same compound, in data set [2], the “Chemical stability when co-dissolved” value is “not chemically stable when co-dissolved in the same solution”.
Turning to `C#Cc1cccc(Nc2ncnc3cc(OCCOC)c(OCCOC)cc23)c1` [ERL, erlotinib], the “VEGF inhibition (in words)” value on human recombinant VEGF is on record as “do not inhibit VEGF measurably”. The solubility (in general, the dissolved amount per volume that the medium holds) in data set [3] (80/20 ethanol/water by weight, organic solvent or mixture, thermodynamic from solid, Solubility, mg/mL in 80/20 Ethanol/Water, 80/20 ethanol/water by mass) is less than 1000 µg/mL; in data set [3] (90/10 methanol/water by weight, organic solvent or mixture, thermodynamic from solid, Solubility, mg/mL in 90/10 Methanol/Water, 90/10 methanol/water by mass) it was 25000 µg/mL (≈ 63.5 mM); in data set [3] (water, Solubility in water at neutral pH, water at neutral pH) it was less than 100 µg/mL; in data set [3] (setting [4]), less than 1000 µg/mL.
With `CC(C)C[C@H](N)C(=O)O` [L-Leucine, L-leucine], in data set [3], the “Solubility, mg/mL in 80/20 Ethanol/Water” value is listed as 2.0 mg/mL (≈ 15.2 mM). Besides, the solubility turned out to be 1700 µg/mL (≈ 13 mM) in data set [3] (organic solvent or mixture, thermodynamic from solid, Solubility, mg/mL in 80/20 Ethanol/Water); 2500 µg/mL (≈ 19.1 mM) in data set [3] (setting [5]); 21000 µg/mL (≈ 160 mM) in data set [3] (setting [4]).
In the case of `CC(=O)O[C@H]1C(=O)[C@@]2(C)[C@H]([C@H](OC(=O)c3ccccc3)[C@]3(O)C[C@H](OC(=O)[C@H](O)[C@@H](NC(=O)c4ccccc4)c4ccccc4)C(C)=C1C3(C)C)[C@]1(OC(C)=O)CO[C@@H]1C[C@@H]2O` [PTX, paclitaxel], the “VEGF inhibition (in words)” value on human recombinant VEGF is given as “do not inhibit VEGF measurably”. Besides, the “Solubility in water at neutral pH” value in data set [3] is recorded as “sparingly soluble”. Also, the solubility in data set [3] (setting [5]) and in data set [3] (setting [4]) was less than 1000 µg/mL each time.
